Results published in publication PMC10545732, “Structure-based drug discovery of a corticotropin-releasing hormone receptor 1 antagonist using an X-ray free-electron laser” (Experimental & Molecular Medicine, 2023).
“Also recorded” adds a separate entry of the source.

Experiments:
CYP3A4 = CYP3A4 (Homo sapiens, UniProt P08684); experiment: CYP inhibition assay CYP3A4 (midazolam 1'-hydroxylase); settings: 10 μM, human liver microsomes, n = 3
Protocol: (§2) Phenacetin O-demethylase, diclofenac 4-hydroxylase, S-mephenytoin 4-hydroxylase, dextromethorphan O-demethylase, and midazolam 1’-hydroxylase activities were determined as probe activities for CYP1A2, CYP2C9, CYP2C19, CYP2D6, and CYP3A4, respectively, using cocktail incubation. […] The cocktail incubation mixtures consisted of 0.25 mg/mL human liver microsomes, 0.1 M phosphate buffer (pH 7.4), an NADPH regeneration system, and inhibitors (CRF1R antagonist compounds, 10 µM) in a total volume of 100 μL. The final volume of the organic solvents in the incubation mixture was 1% (v/v). […] All incubations were performed in triplicate, and the mean values were used for analysis. The samples were then centrifuged at 15,000 rpm for 5 min at 4 °C. […] The CYP-mediated activities in the presence of inhibitors were expressed as percentages of the corresponding control values.

C57BL/6J mice [1] = experiment: Open field test (OFT); type: in vivo; settings: 30 mg/kg orally for 3 days, 1 h open field
Protocol: (§1) C57BL/6J mice (male, 9–10 weeks old) were used for the behavioral tests. All mice were maintained under a 12:12-h light–dark cycle (lights on at 7:00 A.M.) with access to food and water ad libitum. Animal care and handling were performed according to guidelines by the Institutional Animal Care and Use Committee of Yonsei University (Seoul, Korea). Antalarmin, BMK-C203, and BMK-C205 were dissolved in peceol: TPGS: PEG400 (vehicle) (70%:20%:10%, respectively) and administered orally at a dose of 30 mg/kg for 3 days at 24-h intervals. All behavioral tests were conducted 2 h after the third drug was administered during light periods of the circadian cycle. TSTs were performed to verify the effect of CRF1R antagonists on depressive-like behavior. Each mouse was suspended by its tail on a bar 30 cm above the ground for 6 min using adhesive tape. Their movements were recorded by a camera and analyzed using the same parameters via EthoVision XT 8.5 software (Noldus Technologies). Immobility times during the last 4 min of the task were measured. Each mouse was placed in an open field (40 cm × 40 cm × 40 cm chamber) for 1 h to conduct an open field test (OFT) and test locomotion. Their locomotion was recorded and analyzed using EthoVision XT 8.5.

[2] = Microsomal stability assay, human liver microsomes; type: in vitro ADME; settings: for Liver microsomal stability, Human (percentage remaining after 30 min): 1 μM, n = 3; for metabolic stability improved by: human and rat liver microsomes, 30 min
Protocol: LC‒MS/MS was performed on a TSQ Vantage (Thermo, USA) coupled with a Nexera XR LC system (Shimadzu, Japan)[32]. The separation was performed on a Kinetex C18 column (2.1 × 100 mm, 2.6 µm, Phenomenex, USA) using a mobile phase of 0.1% formic acid and acetonitrile containing 0.1% formic acid. A gradient program was used for elution at a flow rate of 0.3 mL/min. The data were acquired using multiple-reaction monitoring (MRM) in positive mode.

C57BL/6J mice [3] = experiment: Tail suspension test (TST); type: in vivo; settings: 30 mg/kg orally for 3 days, test 2 h after third dose, last 4 min of 6 min
Protocol: as §1

CYP1A2 = biological target: T1, CYP1A2 (Homo sapiens, UniProt P05177); experiment: CYP inhibition assay CYP1A2 (phenacetin O-demethylase); type: in vitro ADME; settings: 10 μM, human liver microsomes, n = 3
T1 construct: 0.25 mg/mL human liver microsomes; from tissue; host or cells: human liver microsomes
T1 sequence (P05177 1-516): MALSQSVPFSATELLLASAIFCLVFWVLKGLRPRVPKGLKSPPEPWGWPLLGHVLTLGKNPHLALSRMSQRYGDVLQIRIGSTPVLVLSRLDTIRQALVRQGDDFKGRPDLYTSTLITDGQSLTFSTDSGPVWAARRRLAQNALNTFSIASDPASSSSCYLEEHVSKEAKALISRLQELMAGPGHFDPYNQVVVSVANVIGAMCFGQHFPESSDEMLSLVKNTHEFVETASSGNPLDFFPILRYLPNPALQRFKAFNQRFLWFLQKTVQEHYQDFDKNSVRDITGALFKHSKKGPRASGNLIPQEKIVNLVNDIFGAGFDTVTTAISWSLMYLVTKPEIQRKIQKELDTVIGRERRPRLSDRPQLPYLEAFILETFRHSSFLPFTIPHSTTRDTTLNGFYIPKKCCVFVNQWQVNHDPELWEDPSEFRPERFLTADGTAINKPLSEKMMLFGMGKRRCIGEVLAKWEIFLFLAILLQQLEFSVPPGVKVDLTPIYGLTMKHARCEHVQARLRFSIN
Protocol: as §2

CYP2C9 = biological target: T2, CYP2C9 (Homo sapiens, UniProt P11712); experiment: CYP inhibition assay CYP2C9 (diclofenac 4-hydroxylase); type: in vitro ADME; settings: 10 μM, human liver microsomes, n = 3
T2 construct: 0.25 mg/mL human liver microsomes; from tissue; host or cells: human liver microsomes
T2 sequence (P11712 whole entry): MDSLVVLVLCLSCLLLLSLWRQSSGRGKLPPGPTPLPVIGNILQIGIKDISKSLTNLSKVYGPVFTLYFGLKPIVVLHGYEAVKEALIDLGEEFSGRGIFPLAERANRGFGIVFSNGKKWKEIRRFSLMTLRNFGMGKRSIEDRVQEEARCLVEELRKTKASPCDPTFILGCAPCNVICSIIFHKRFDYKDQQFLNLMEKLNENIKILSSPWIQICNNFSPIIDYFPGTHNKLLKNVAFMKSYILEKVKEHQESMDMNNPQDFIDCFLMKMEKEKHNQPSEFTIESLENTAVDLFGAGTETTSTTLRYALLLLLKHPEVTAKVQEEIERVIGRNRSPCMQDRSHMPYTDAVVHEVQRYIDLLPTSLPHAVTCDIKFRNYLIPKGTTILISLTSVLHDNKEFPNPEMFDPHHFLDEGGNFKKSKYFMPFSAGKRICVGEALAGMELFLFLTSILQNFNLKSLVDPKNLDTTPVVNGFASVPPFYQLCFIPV
Protocol: as §2

CORT serum levels = experiment: Serum CORT level after TST (LC-MS); type: in vivo, mice; settings: 30 mg/kg orally for 3 days, immediately after TST
Protocol: The mice were anesthetized via intraperitoneal injections of 2,2,2-tribromoethanol (300 mg/kg, Sigma-Aldrich) immediately after the TST and before blood from the heart was sampled. Blood samples were collected in plastic tubes and incubated at room temperature for at least 2 h. The sera were extracted after centrifugation at 13,000×g for 10 min at 4 °C. CORT levels were determined via LC‒MS analysis. Serum (10 µL) was mixed with 20 μL of an internal standard solution (d4-cortisol) to prepare the samples. Subsequently, 100 μL of acetonitrile was added, and the mixture was centrifuged at 16,000×g for 10 min for protein precipitation. The supernatants (60 μL) were transferred into an autosampler vial, and 30 μL of water was added for efficient separation via high-performance liquid chromatography (HPLC). LC‒MS was performed with a triple quadrupole mass spectrometer coupled with HPLC using a C18 reversed-phase column. CORT levels were determined using a calibration curve constructed using CORT-spiked mouse serum. Serum samples (20 μL) were analyzed using a commercially available ELISA kit for ACTH (ab263880, Abcam) to measure ACTH serum levels.

CYP2D6 = CYP2D6 (Homo sapiens, UniProt P10635); experiment: CYP inhibition assay CYP2D6 (dextromethorphan O-demethylase); settings: 10 μM, human liver microsomes, n = 3
Sequence of CYP2D6 (P10635 whole entry): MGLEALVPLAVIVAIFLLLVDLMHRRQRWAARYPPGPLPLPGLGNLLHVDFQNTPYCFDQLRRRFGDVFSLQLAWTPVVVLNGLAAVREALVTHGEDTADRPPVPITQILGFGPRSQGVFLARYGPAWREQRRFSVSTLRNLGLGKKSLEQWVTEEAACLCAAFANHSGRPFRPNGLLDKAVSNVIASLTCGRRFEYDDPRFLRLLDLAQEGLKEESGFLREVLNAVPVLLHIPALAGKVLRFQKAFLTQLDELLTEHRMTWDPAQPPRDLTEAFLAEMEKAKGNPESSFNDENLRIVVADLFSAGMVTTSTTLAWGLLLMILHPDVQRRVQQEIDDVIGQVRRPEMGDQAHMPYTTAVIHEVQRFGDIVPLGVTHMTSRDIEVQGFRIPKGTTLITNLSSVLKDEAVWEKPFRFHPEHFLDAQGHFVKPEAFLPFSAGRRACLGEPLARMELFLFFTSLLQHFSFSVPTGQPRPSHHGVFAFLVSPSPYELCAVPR
Protocol: as §2

Sequence of CYP3A4 (P08684 whole entry): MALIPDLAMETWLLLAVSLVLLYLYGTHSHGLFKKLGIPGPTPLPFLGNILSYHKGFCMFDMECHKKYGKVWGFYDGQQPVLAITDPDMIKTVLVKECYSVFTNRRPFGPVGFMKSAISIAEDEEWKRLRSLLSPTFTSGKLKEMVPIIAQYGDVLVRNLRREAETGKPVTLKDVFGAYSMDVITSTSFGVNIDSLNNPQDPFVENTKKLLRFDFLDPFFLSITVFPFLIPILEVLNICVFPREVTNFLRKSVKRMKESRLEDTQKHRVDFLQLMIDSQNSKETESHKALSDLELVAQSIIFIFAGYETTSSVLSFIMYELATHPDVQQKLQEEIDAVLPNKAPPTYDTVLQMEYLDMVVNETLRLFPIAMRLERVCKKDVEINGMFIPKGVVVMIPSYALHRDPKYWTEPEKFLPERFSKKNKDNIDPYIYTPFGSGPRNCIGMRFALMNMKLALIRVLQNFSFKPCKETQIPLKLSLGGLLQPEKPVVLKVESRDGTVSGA

Row | Compound | CYP3A4, percentage of control activity (CYP3A4) | OFT locomotion / overall moving distance (C57BL/6J mice [1]) | Liver microsomal stability, Human (percentage remaining after 30 min) [2] | metabolic stability improved by [2] | TST immobility time versus vehicle (C57BL/6J mice [3]) | CYP1A2, percentage of control activity (CYP1A2) | CYP2C9, percentage of control activity (CYP2C9) | serum CORT level versus vehicle (CORT serum levels) | CYP2D6, percentage of control activity (CYP2D6)
1 | COc1cc(Br)cc(OC)c1-c1c(C)nn2c(N(CCCC(F)(F)F)CCCC(F)(F)F)nc(C)nc12 [BMK-C203] | 90.5 ± 2.9 percentage of control activity | did not differ among groups | 88.3 ± 16.71% | more than 90% | did not significantly affect | 95.6 ± 2.9 percentage of control activity | 94.9 ± 1.9 percentage of control activity | did not significantly affect | > 100 ± 4.0 percentage of control activity
2 | CCCCN(CC1CC1)c1nc(C)nc2c(-c3c(OC)cc(Br)cc3OC)c(C)nn12 [BMK-C205] | > 100 ± 6.2 percentage of control activity | did not differ among groups; also recorded: no differences | 88.0 ± 4.50% | more than 90% | significantly decreased; also recorded: more mobile than the vehicle group | > 100 ± 4.2 percentage of control activity | 89.8 ± 2.4 percentage of control activity | decreased | > 100 ± 3.8 percentage of control activity
